What was measured:
AMBEL (Ragweed, Common) [1] = assay: Postemergence herbicidal evaluation; type: in vivo, Ambrosia artemisifolia; details: postemergence
Summary of the method: (§1)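 First, seedlings were raised for around two weeks. Next, test material in 50/50 acetone/water containing 0.5% TWEEN 20 was sprayed through a nozzle at 40 psi, equivalent to about 0.0156–0.500 kg/ha. Finally, after 4–5 weeks in the greenhouse, plants were rated 0–9.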

CASOB (Sicklepod) [2] = assay: Postemergence herbicidal evaluation; type: in vivo, Cassia obtusifolia; details: postemergence
Summary of the method: as §1

[3] = system: CHEAL (Lambsquarters, Common); assay: Postemergence herbicidal evaluation; type: in vivo, Chenopodium album; details: postemergence
Summary of the method: as §1

[4] = system: IPOHE (Morningglory, Ivyleaf); assay: Postemergence herbicidal evaluation; type: in vivo, Ipomoea hederacea; details: postemergence
Summary of the method: as §1

ECHCG (Barnyardgrass) = assay: Postemergence herbicidal evaluation; type: in vivo, Echinochloa crus-galli; details: postemergence
Summary of the method: as §1

[5] = system: GLXMAW (Soybean, Williams); assay: Postemergence herbicidal evaluation; type: in vivo, Glycine max, (L.) Merr. cv Williams; details: postemergence
Summary of the method: as §1

[6] = system: TRZAWR (Wheat, Winter, cv Riband); assay: Postemergence herbicidal evaluation; type: in vivo, Triticum aestivum; details: postemergence
Summary of the method: as §1

ABUTH (Velvetleaf) = assay: Preemergence herbicidal evaluation; type: in vivo, Abutilon theophrasti; details: rated 4-5 weeks after treatment
Summary of the method: (§2)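 Scores (0–9) reflect visual comparison with control plants for stand, vigor, malformation, size and chlorosis. Compound was applied to the soil after sowing, before emergence, as an aqueous acetone spray (about 0.0156–0.500 kg/ha), and cups were kept in a greenhouse for 4–5 weeks.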

AMBEL (Ragweed, Common) [7] = assay: Preemergence herbicidal evaluation; type: in vivo, Ambrosia artemisifolia; details: rated 4-5 weeks after treatment
Summary of the method: as §2

CASOB (Sicklepod) [8] = assay: Preemergence herbicidal evaluation; type: in vivo, Cassia obtusifolia; details: rated 4-5 weeks after treatment
Summary of the method: as §2

[9] = system: CHEAL (Lambsquarters, Common); assay: Preemergence herbicidal evaluation; type: in vivo, Chenopodium album; details: rated 4-5 weeks after treatment
Summary of the method: as §2

[10] = system: IPOHE (Morningglory, Ivyleaf); assay: Preemergence herbicidal evaluation; type: in vivo, Ipomoea hederacea; details: rated 4-5 weeks after treatment
Summary of the method: as §2

[11] = system: GLXMAW (Soybean, Williams); assay: Preemergence herbicidal evaluation; type: in vivo, Glycine max, (L.) Merr. cv Williams; details: rated 4-5 weeks after treatment
Summary of the method: as §2

ORYSAT (Rice, Tebonnet) = assay: Preemergence herbicidal evaluation; type: in vivo, Oryza sativa, (L.) Tebonnet; details: rated 4-5 weeks after treatment
Summary of the method: as §2

MOOVA (Monochoria) = assay: Preemergence weed control under flooded paddy conditions; type: in vivo, Monochoria vaginalis; details: rated 3-4 weeks after treatment
Summary of the method: (§3)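 Values are visual 0-9 scores against a control for a preemergence application into paddy flood water at about 0.0313 to 0.500 kg/ha. Greenhouse duration was three to four weeks.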

[12] = system: SAGPY (Arrowhead (Pygmaea)); assay: as above; type: in vivo, Sagittaria pygmaea; details: rated 3-4 weeks after treatment
Summary of the method: as §3

In the case of `CCN1C(=O)CSC1=Nc1cc(-n2c(=O)cc(C(F)(F)F)n(C)c2=O)c(F)cc1Cl` [Compound 159, 3-{4-Chloro-5-[(3-ethyl-4-oxo-2-thiazolidinyl-idene)amino]-2-fluorophenyl}-1-methyl-6-(trifluoromethyl)-2,4(1H,3H)-pyrimidinedione], the “Herbicidal rating AMBEL” value (AMBEL (Ragweed, Common) [1]; rate 0.0156 kg/ha) is reported as 4.0, the “Herbicidal rating AMBEL” value (AMBEL (Ragweed, Common) [1]; rate 0.0313 kg/ha) is reported as 7.0 and the “Herbicidal rating AMBEL” value (AMBEL (Ragweed, Common) [1]; rate 0.0625 kg/ha) is reported as 7.0. The “Herbicidal rating CASOB” value (CASOB (Sicklepod) [2]; rate 0.0156 kg/ha) was 0.0, the “Herbicidal rating CASOB” value (CASOB (Sicklepod) [2]; rate 0.0313 kg/ha) was 1.0 and the “Herbicidal rating CASOB” value (CASOB (Sicklepod) [2]; rate 0.0625 kg/ha) was 7.0. For the same compound, the “Herbicidal rating CHEAL” value ([3]; rate 0.0156 kg/ha) was 3.0, the “Herbicidal rating CHEAL” value ([3]; rate 0.0313 kg/ha) was 4.0 and the “Herbicidal rating CHEAL” value ([3]; rate 0.0625 kg/ha) was 5.0. For the same compound, the “Herbicidal rating IPOHE” value ([4]; rate 0.0156 kg/ha) was 9.0, the “Herbicidal rating IPOHE” value ([4]; rate 0.0313 kg/ha) was 9.0 and the “Herbicidal rating IPOHE” value ([4]; rate 0.0625 kg/ha) was 9.0. The “Herbicidal rating ECHCG” value (ECHCG (Barnyardgrass); rate 0.0156 kg/ha) was 2.0, the “Herbicidal rating ECHCG” value (ECHCG (Barnyardgrass); rate 0.0313 kg/ha) was 3.0 and the “Herbicidal rating ECHCG” value (ECHCG (Barnyardgrass); rate 0.0625 kg/ha) was 3.0. For the same compound, the “Herbicidal rating GLXMAW” value ([5]; rate 0.0156 kg/ha) was 5.0, the “Herbicidal rating GLXMAW” value ([5]; rate 0.0313 kg/ha) was 5.5 and the “Herbicidal rating GLXMAW” value ([5]; rate 0.0625 kg/ha) was 7.0. The “Herbicidal rating TRZAWR” value ([6]; rate 0.0156 kg/ha) was 2.5, the “Herbicidal rating TRZAWR” value ([6]; rate 0.0313 kg/ha) was 3.5 and the “Herbicidal rating TRZAWR” value ([6]; rate 0.0625 kg/ha) was 3.5. The “Preemergence herbicidal rating ABUTH” value (ABUTH (Velvetleaf); 0.0156 kg/ha) was 2.0, the “Preemergence herbicidal rating ABUTH” value (ABUTH (Velvetleaf); 0.0313 kg/ha) was 9.0 and the “Preemergence herbicidal rating ABUTH” value (ABUTH (Velvetleaf); 0.0625 kg/ha) was 9.0. For the same compound, the “Preemergence herbicidal rating ABUTH” value (ABUTH (Velvetleaf); 0.1250 kg/ha) was 9.0, the “Preemergence herbicidal rating ABUTH” value (ABUTH (Velvetleaf); 0.2500 kg/ha) was 9.0 and the “Preemergence herbicidal rating AMBEL” value (AMBEL (Ragweed, Common) [7]; 0.0156 kg/ha) was 1.0. The “Preemergence herbicidal rating AMBEL” value (AMBEL (Ragweed, Common) [7]; 0.0313 kg/ha) was 3.0, the “Preemergence herbicidal rating AMBEL” value (AMBEL (Ragweed, Common) [7]; 0.0625 kg/ha) was 4.0 and the “Preemergence herbicidal rating AMBEL” value (AMBEL (Ragweed, Common) [7]; 0.1250 kg/ha) was 6.0. The “Preemergence herbicidal rating AMBEL” value (AMBEL (Ragweed, Common) [7]; 0.2500 kg/ha) was 8.0, the “Preemergence herbicidal rating CASOB” value (CASOB (Sicklepod) [8]; 0.0156 kg/ha) was 0.0 and the “Preemergence herbicidal rating CASOB” value (CASOB (Sicklepod) [8]; 0.0313 kg/ha) was 1.0. The “Preemergence herbicidal rating CASOB” value (CASOB (Sicklepod) [8]; 0.0625 kg/ha) was 3.0, the “Preemergence herbicidal rating CASOB” value (CASOB (Sicklepod) [8]; 0.1250 kg/ha) was 3.0 and the “Preemergence herbicidal rating CASOB” value (CASOB (Sicklepod) [8]; 0.2500 kg/ha) was 7.0. For the same compound, the “Preemergence herbicidal rating CHEAL” value ([9]; 0.0156 kg/ha) was 7.0, the “Preemergence herbicidal rating CHEAL” value ([9]; 0.0313 kg/ha) was 9.0 and the “Preemergence herbicidal rating CHEAL” value ([9]; 0.0625 kg/ha) was 8.0. The “Preemergence herbicidal rating CHEAL” value ([9]; 0.1250 kg/ha) was 9.0, the “Preemergence herbicidal rating CHEAL” value ([9]; 0.2500 kg/ha) was 9.0 and the “Preemergence herbicidal rating IPOHE” value ([10]; 0.0156 kg/ha) was 0.0. The “Preemergence herbicidal rating IPOHE” value ([10]; 0.0313 kg/ha) was 2.0, the “Preemergence herbicidal rating IPOHE” value ([10]; 0.0625 kg/ha) was 9.0 and the “Preemergence herbicidal rating IPOHE” value ([10]; 0.1250 kg/ha) was 7.0. For the same compound, the “Preemergence herbicidal rating IPOHE” value ([10]; 0.2500 kg/ha) was 9.0, the “Preemergence herbicidal rating GLXMAW” value ([11]; 0.0156 kg/ha) was 1.0 and the “Preemergence herbicidal rating GLXMAW” value ([11]; 0.0313 kg/ha) was 0.0. For the same compound, the “Preemergence herbicidal rating GLXMAW” value ([11]; 0.0625 kg/ha) was 1.0, the “Preemergence herbicidal rating GLXMAW” value ([11]; 0.1250 kg/ha) was 2.0 and the “Preemergence herbicidal rating GLXMAW” value ([11]; 0.2500 kg/ha) was 3.0. For the same compound, the “Preemergence herbicidal rating ORYSAT” value (ORYSAT (Rice, Tebonnet); 0.0156 kg/ha) was 0.0, the “Preemergence herbicidal rating ORYSAT” value (ORYSAT (Rice, Tebonnet); 0.0313 kg/ha) was 0.0 and the “Preemergence herbicidal rating ORYSAT” value (ORYSAT (Rice, Tebonnet); 0.0625 kg/ha) was 0.0. For the same compound, the “Preemergence herbicidal rating ORYSAT” value (ORYSAT (Rice, Tebonnet); 0.1250 kg/ha) was 1.0, the “Preemergence herbicidal rating ORYSAT” value (ORYSAT (Rice, Tebonnet); 0.2500 kg/ha) was 2.0 and the “herbicidal effect rating, MOOVA” value (MOOVA (Monochoria); 0.0313 kg/ha) was 0.0. The “herbicidal effect rating, MOOVA” value (MOOVA (Monochoria); 0.0625 kg/ha) was 3.0, the “herbicidal effect rating, MOOVA” value (MOOVA (Monochoria); 0.1250 kg/ha) was 6.0 and the “herbicidal effect rating, MOOVA” value (MOOVA (Monochoria); 0.2500 kg/ha) was 9.0. The “herbicidal effect rating, SAGPY” value ([12]; 0.0313 kg/ha) was 0.0, the “herbicidal effect rating, SAGPY” value ([12]; 0.0625 kg/ha) was 3.0 and the “herbicidal effect rating, SAGPY” value ([12]; 0.1250 kg/ha) was 3.0. The “herbicidal effect rating, SAGPY” value ([12]; 0.2500 kg/ha) was 6.0.
